Legend:
Format in all cases: in vivo
[1] = test system: Lolium perenne (LOLPE); assay: Test Example 1 pre-emergence herbicidal activity; details: Lolium perenne, 480 h, rate 250 g/ha, evaluated 20 days later, read-out: Pre-emergence activity LOLPE (100=total damage to plant; 0=no damage to plant)
How it was run: (§1)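 Sow in pots of standard soil → grow 1 day (pre-emergence) or 10 days (post-emergence) in glasshouse → spray aqueous formulated compound → grow on under optimum conditions → score damage 0–100 at day 20 (pre) or day 15 (post).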

[2] = test system: Echinochloa crus-galli (ECHCG); assay: Test Example 1 pre-emergence herbicidal activity; details: Echinochloa crus-galli, 480 h, rate 250 g/ha, evaluated 20 days later, read-out: Pre-emergence activity ECHCG (100=total damage to plant; 0=no damage to plant)
How it was run: as §1

[3] = test system: Avena fatua (AVEFA); assay: Test Example 1 pre-emergence herbicidal activity; details: Avena fatua, 480 h, rate 250 g/ha, evaluated 20 days later, read-out: Pre-emergence activity AVEFA (100=total damage to plant; 0=no damage to plant)
How it was run: as §1

[4] = test system: Alopecurus myosuroides (ALOMY); assay: Test Example 1 pre-emergence herbicidal activity; details: Alopecurus myosuroides, 480 h, rate 250 g/ha, evaluated 20 days later, read-out: Pre-emergence activity ALOMY (100=total damage to plant; 0=no damage to plant)
How it was run: as §1

[5] = test system: Digitaria sanguinalis (DIGSA); assay: Test Example 1 pre-emergence herbicidal activity; details: Digitaria sanguinalis, 480 h, rate 250 g/ha, evaluated 20 days later, read-out: Pre-emergence activity DIGSA (100=total damage to plant; 0=no damage to plant)
How it was run: as §1

[6] = test system: Setaria faberi (SETFA); assay: Test Example 1 pre-emergence herbicidal activity; details: Setaria faberi, 480 h, rate 250 g/ha, evaluated 20 days later, read-out: Pre-emergence activity SETFA (100=total damage to plant; 0=no damage to plant)
How it was run: as §1

[7] = test system: Lolium perenne (LOLPE); assay: Test Example 1 post-emergence herbicidal activity; details: 360 h, rate 125 g/ha, evaluated 15 days later, read-out: Post-emergence activity LOLPE (100=total damage to plant; 0=no damage to plant)
How it was run: as §1

[8] = test system: Echinochloa crus-galli (ECHCG); assay: Test Example 1 post-emergence herbicidal activity; details: 360 h, rate 125 g/ha, evaluated 15 days later, read-out: Post-emergence activity ECHCG (100=total damage to plant; 0=no damage to plant)
How it was run: as §1

[9] = test system: Avena fatua (AVEFA); assay: Test Example 1 post-emergence herbicidal activity; details: 360 h, rate 125 g/ha, evaluated 15 days later, read-out: Post-emergence activity AVEFA (100=total damage to plant; 0=no damage to plant)
How it was run: as §1

[10] = test system: Alopecurus myosuroides (ALOMY); assay: Test Example 1 post-emergence herbicidal activity; details: 360 h, rate 125 g/ha, evaluated 15 days later, read-out: Post-emergence activity ALOMY (100=total damage to plant; 0=no damage to plant)
How it was run: as §1

[11] = test system: Digitaria sanguinalis (DIGSA); assay: Test Example 1 post-emergence herbicidal activity; details: 360 h, rate 125 g/ha, evaluated 15 days later, read-out: Post-emergence activity DIGSA (100=total damage to plant; 0=no damage to plant)
How it was run: as §1

[12] = test system: Setaria faberi (SETFA); assay: Test Example 1 post-emergence herbicidal activity; details: 360 h, rate 125 g/ha, evaluated 15 days later, read-out: Post-emergence activity SETFA (100=total damage to plant; 0=no damage to plant)
How it was run: as §1

Row | SMILES | pest or weed control at 250 g/ha [1] [%] | pest or weed control at 250 g/ha [2] [%] | pest or weed control at 250 g/ha [3] [%] | pest or weed control at 250 g/ha [4] [%] | pest or weed control at 250 g/ha [5] [%] | pest or weed control at 250 g/ha [6] [%] | pest or weed control at 125 g/ha [7] [%] | pest or weed control at 125 g/ha [8] [%] | pest or weed control at 125 g/ha [9] [%] | pest or weed control at 125 g/ha [10] [%] | pest or weed control at 125 g/ha [11] [%] | pest or weed control at 125 g/ha [12] [%]
1 | CCc1ccc(Br)cc1C1=C(O)[C@H]2[C@@H](C1=O)[C@@H]1CC[C@H]2O1 [Example T134] | 70 | 20 | 20 | 60 | 50 | 0 | 20 | 70 | 20 | 20 | 20 | 50
2 | CCc1cc(C)cc(CC)c1C1=C(O)[C@@H]2[C@@H]3O[C@@H](C[C@H]3c3ccc(C)cc3Cl)[C@@H]2C1=O [Example T143] | 70 | 10 | 20 | 50 | 80 | 70 | 30 | 70 | 60 | 40 | 60 | 40
3 | CCc1cc(C)cc(CC)c1C1=C(OC(=O)CCCCCCC(=O)OC)[C@H]2[C@@H](C1=O)[C@@H]1CC[C@H]2O1 [Example P16] | 90 | 100 | 90 | 100 | 100 | 100 | 100 | 100 | 90 | 100 | 100 | 100
4 | CSc1ccc([C@@H]2C[C@@H]3O[C@H]2[C@H]2C(O)=C(c4c(C)cc(C)cc4C)C(=O)[C@H]23)cc1 [Example T66] | 40 | 70 | 60 | 30 | 90 | 100 | 50 | 80 | 80 | 80 | 90 | 80
5 | CCc1cc(C)cc(CC)c1C1=C(O)[C@@H]2[C@@H]3O[C@@H](C[C@H]3c3ccc(C)c(Cl)c3)[C@@H]2C1=O [Example T151] | 60 | 40 | 20 | 50 | 80 | 20 | 30 | 80 | 80 | 80 | 70 | 10
6 | CCc1cc(C)cc(CC)c1C1=C(O)[C@@H]2[C@@H]3O[C@@H](C[C@H]3c3cc(OC)c(OC)c(OC)c3)[C@@H]2C1=O (racemic) [Example T181] | 80 | 100 | 40 | 40 | 90 | 70 | 80 | 100 | 90 | 90 | 80 | 100
7 | Cc1cc(C)c(C2=C(O)[C@@H]3[C@@H]4O[C@@H](C[C@H]4/C=C/c4ccccc4)[C@@H]3C2=O)c(C)c1 [Example T98] | 20 | 30 | 20 | 30 | 0 | 70 | 40 | 80 | 20 | 70 | 60 | 70
8 | CCc1cc(C)cc(CC)c1C1=C(O)[C@H]2[C@@H](C1=O)[C@@H]1C=C[C@H]2O1 [Example T4] | 100 | 100 | 90 | 90 | 100 | 90 | 90 | 100 | 90 | 80 | 80 | 80
9 | CCc1cc(C)cc(CC)c1C1=C(O)[C@H]2[C@@H](C1=O)[C@@H]1CC[C@@]2(C)O1 [Example T8] | 100 | 100 | 90 | 100 | 100 | 100 | 100 | 100 | 100 | 100 | 100 | 100
10 | CCOCOC[C@]12CC[C@H](O1)[C@@H]1C(=O)C(c3c(CC)cc(C)cc3CC)=C(O)[C@@H]12 [Example T19] | 100 | 100 | 90 | 100 | 90 | 100 | 90 | 100 | 100 | 100 | 90 | 100
11 | CCc1cc(C)cc(CC)c1C1=C(O)[C@@H]2[C@@H]3O[C@@H](C[C@H]3c3ccc(F)c(F)c3)[C@@H]2C1=O (racemic) [Example T178] | 80 | 100 | 40 | 70 | 80 | 100 | 90 | 100 | 90 | 100 | 100 | 100
12 | CCc1cc(C)cc(CC)c1C1=C(O)[C@@H]2[C@@H]3O[C@@H](C[C@H]3c3ccc(C)c(F)c3)[C@@H]2C1=O [Example T146] | 90 | 80 | 60 | 70 | 80 | 80 | 90 | 100 | 80 | 80 | 70 | 70
13 | CCc1cc(C)cc(CC)c1C1=C(O)[C@@H]2[C@@H]3O[C@@H](C[C@H]3c3cc(C(F)(F)F)ccc3Cl)[C@@H]2C1=O [Example T169] | 40 | 0 | 30 | 20 | 0 | 0 | 30 | 80 | 10 | 90 | 40 | 60
